# Measurements published in patent publication US9375004B2 (Bayer Intellectual Property GmbH, priority 2010, dated 2016).
# Test: logP by HPLC on reversed-phase column (EEC Directive 79/831 Annex V.A8)
# Settings: HPLC on a reversed-phase column (C 18), EEC Directive 79/831 Annex V.A8
row,Structure (SMILES),logP
1,C/C(=N\OC(C)(C)C)c1ccc(-c2cccc(NC(=O)c3c(C(F)F)nn(C)c3Cl)c2)cc1 [compound 248],5.51
2,Cn1nc(C(F)F)c(C(=O)Nc2ccc(-c3ccccc3)cc2)c1F [compound 264],3.33
3,Cn1nc(C(F)F)c(C(=O)Nc2ccc(-c3cc(Cl)cc(Cl)c3)cc2)c1Cl [compound 267],4.72
4,Cn1nc(C(F)F)c(C(=O)Nc2cccc(OCc3ccccc3)c2)c1F [compound 252],3.35
5,Cn1nc(C(F)F)c(C(=O)Nc2ccc(OC(F)(F)F)cc2Br)c1F [compound 260],3.76
6,Cn1nc(C(F)F)c(C(=O)Nc2ccc(C3CCCCC3)cc2)c1Cl [compound 263],4.44
7,Cn1nc(C(F)F)c(C(=O)Nc2ccc(Cl)cc2)c1F [compound 261],2.70
8,C/C(=N\OC(C)(C)C)c1ccc(-c2cccc(NC(=O)c3c(C(F)F)nn(C)c3F)c2)cc1 [compound 247],5.28
9,Cn1nc(C(F)F)c(C(=O)Nc2cccc(-c3ccc(OC(F)(F)F)cc3)c2)c1Cl [compound 244],4.34
10,Cn1nc(C(F)F)c(C(=O)Nc2ccc(Oc3ccccc3)cc2)c1F [compound 268],3.29

# Same assay, conditions: HPLC on reversed-phase column (C 18), EEC Directive 79/831 Annex V.A8
row,Structure (SMILES),logP
1,Cn1nc(C(F)F)c(C(=O)Nc2ccccc2Sc2ccc(Cl)cc2)c1F [compound 164],4.34
2,Cn1nc(C(F)F)c(C(=O)Nc2ccccc2-c2ccc([Si](C)(C)C)cc2)c1Cl [compound 136],5.39
3,CO/N=C(\C)c1ccc(-c2cccc(NC(=O)c3c(C(F)F)nn(C)c3F)c2)cc1 [compound 233],3.89
4,Cn1nc(C(F)F)c(C(=O)Nc2ccccc2-c2ccc(Cl)cc2Cl)c1Cl [compound 124],4.24
5,Cn1nc(C(F)F)c(C(=O)Nc2cccc(-c3ccc(F)cc3)c2)c1F [compound 203],3.39
6,C/C(=N\OC(C)(C)C)c1ccc(-c2ccccc2NC(=O)c2c(C(F)F)nn(C)c2F)cc1 [compound 156],5.17
7,Cn1nc(C(F)F)c(C(=O)Nc2cccc3c2CCCC3)c1Cl [compound 57],3.31
8,Cn1nc(C(F)F)c(C(=O)Nc2cccc(Br)c2)c1F [compound 189],2.82
9,Cn1nc(C(F)F)c(C(=O)Nc2ccccc2-c2ccc(OC(F)(F)F)cc2)c1Cl [compound 144],4.19
10,Cn1nc(C(F)F)c(C(=O)Nc2ccc3c(c2)OC(F)(F)O3)c1Cl [compound 198],3.11
11,Cc1cccc(NC(=O)c2c(C(F)F)nn(C)c2F)c1CCC(C)(C)C [compound 16],4.06
12,Cn1nc(C(F)F)c(C(=O)Nc2cc(Cl)ccc2CCC(C)(C)C)c1F [compound 18],4.51
13,Cc1ccccc1-c1cccc(NC(=O)c2c(C(F)F)nn(C)c2Cl)c1 [compound 202],3.83
14,Cn1nc(C(F)F)c(C(=O)Nc2ccccc2-c2cc(Cl)cc(Cl)c2)c1F [compound 127],4.01
15,"Cn1nc(C(F)F)c(C(=S)Nc2ccccc2C2CC2C2CC2)c1Cl (single isomer, unassigned) [Example 49]",3.79
16,CC(C)c1ccc(-c2cccc(NC(=O)c3c(C(F)F)nn(C)c3Cl)c2)cc1 [compound 216],4.68
17,Cn1nc(C(F)F)c(C(=O)Nc2ccc3c(c2)OCO3)c1Cl [compound 195],2.20
18,CC(C)CCc1cc(F)ccc1NC(=O)c1c(C(F)F)nn(C)c1F [Example 10],3.67
19,CC(C)COc1ccc(-c2ccccc2NC(=O)c2c(C(F)F)nn(C)c2F)cc1 [compound 131],4.61
20,Cn1nc(C(F)F)c(C(=O)Nc2cccc(OCC(F)(F)F)c2)c1F [compound 186],2.88
21,Cn1nc(C(F)F)c(C(=O)Nc2cccc(OCC(F)(F)F)c2)c1Cl [compound 187],3.06
22,CC(C)c1ccccc1NC(=O)c1c(C(F)F)nn(C)c1Cl [compound 2],3.02
23,Cn1nc(C(F)F)c(C(=O)Nc2cccc(-c3ccc([Si](C)(C)C)cc3)c2)c1Cl [compound 240],5.25
24,Cn1nc(C(F)F)c(C(=O)Nc2ccccc2Sc2ccc(Cl)cc2)c1Cl [compound 165],4.63

row,Structure (SMILES),logP
1,Cn1nc(C(F)F)c(C(=O)Nc2ccccc2SC(F)(F)F)c1F [compound 36],3.37
2,CC(C)Oc1ccc(-c2cccc(NC(=O)c3c(C(F)F)nn(C)c3F)c2)cc1 [compound 223],3.96
3,Cn1nc(C(F)F)c(C(=O)Nc2ccc3c(c2)OC(F)(F)C(F)(F)O3)c1F [compound 199],3.58
4,CCC(C)Oc1cc(NC(=O)c2c(C(F)F)nn(C)c2F)ccc1C (stereo not shown) [compound 179],3.85
5,Cn1nc(C(F)F)c(C(=O)Nc2ccc3c(c2)OCO3)c1F [compound 194],2.05
6,Cn1nc(C(F)F)c(C(=O)Nc2ccccc2SCC(F)(F)F)c1F [compound 37],3.29
7,Cn1nc(C(F)F)c(C(=O)Nc2ccccc2SC(F)(F)C(F)(F)C(F)(F)F)c1F [compound 42],4.25
8,Cn1nc(C(F)F)c(C(=O)Nc2cccc(OCC(C)(C)C)c2)c1F [compound 182],3.96
9,Cn1nc(C(F)F)c(C(=O)Nc2cccc3c2CCCC3)c1F [compound 56],3.08
10,"Cn1nc(C(F)F)c(C(=S)Nc2ccccc2C2CC2C2CC2)c1Cl (single isomer, unassigned) [Example 50]",3.81
11,Cc1ccccc1Oc1ccccc1NC(=O)c1c(C(F)F)nn(C)c1Cl [compound 161],4.29
12,Cn1nc(C(F)F)c(C(=O)Nc2cccc(-c3cccc([Si](C)(C)C)c3)c2)c1Cl [compound 238],5.17
13,Cn1nc(C(F)F)c(C(=O)Nc2cccc(-c3ccc(C(C)(C)C)cc3)c2)c1Cl [compound 220],4.93
14,CO/N=C(\C)c1ccc(-c2ccccc2NC(=O)c2c(C(F)F)nn(C)c2Cl)cc1 [compound 130],4.11
15,Cc1ccccc1-c1cccc(NC(=O)c2c(C(F)F)nn(C)c2F)c1 [compound 201],3.63
16,CC(C)Oc1cccc(-c2ccccc2NC(=O)c2c(C(F)F)nn(C)c2F)c1 [compound 111],3.96
17,Cn1nc(C(F)F)c(C(=O)Nc2ccccc2Br)c1Cl [compound 44],3.13
18,Cn1nc(C(F)F)c(C(=O)Nc2cccc(Cl)c2SCC(F)(F)F)c1F [compound 39],3.73
19,CC(C)Oc1cccc(-c2cccc(NC(=O)c3c(C(F)F)nn(C)c3Cl)c2)c1 [compound 222],4.21
20,CC(C)c1cccc(-c2ccccc2NC(=O)c2c(C(F)F)nn(C)c2Cl)c1 [compound 95],4.76
21,Cn1nc(C(F)F)c(C(=O)Nc2ccccc2C2CC2)c1F [compound 45],2.96
22,CCCOc1cccc(NC(=O)c2c(C(F)F)nn(C)c2F)c1 [compound 175],3.04
23,Cn1nc(C(F)F)c(C(=O)Nc2ccccc2-c2cccc(Cl)c2Cl)c1F [compound 121],3.76
24,Cn1nc(C(F)F)c(C(=O)Nc2ccccc2OC(F)(F)C(F)F)c1Cl [compound 30],3.31

row,Structure (SMILES),logP
1,Cn1nc(C(F)F)c(C(=O)Nc2ccccc2-c2ccc(F)c(Cl)c2)c1F [compound 102],3.60
2,Cn1nc(C(F)F)c(C(=O)Nc2cccc(-c3ccc(C(F)(F)F)cc3)c2)c1Cl [compound 226],4.19
3,Cn1nc(C(F)F)c(C(=O)Nc2cccc(-c3cccc(Cl)c3Cl)c2)c1F [compound 227],3.99
4,Cn1nc(C(F)F)c(C(=O)Nc2ccccc2-c2ccc(OC(F)(F)F)cc2)c1F [compound 145],3.92
5,Cn1nc(C(F)F)c(C(=O)Nc2cccc(C3CC3)c2)c1F [compound 191],2.90
6,Cn1nc(C(F)F)c(C(=O)Nc2ccccc2-c2cccc([Si](C)(C)C)c2)c1F [compound 133],4.83
7,Cn1nc(C(F)F)c(C(=O)Nc2cc(F)ccc2SCC(F)F)c1F [compound 34],3.33
8,Cn1nc(C(F)F)c(C(=O)Nc2ccccc2-c2cccc(Cl)c2Cl)c1Cl [compound 122],4.06
9,Cn1nc(C(F)F)c(C(=O)Nc2ccccc2OCc2ccccc2)c1Cl [compound 159],3.99
10,CCC(C)Oc1cc(NC(=O)c2c(C(F)F)nn(C)c2Cl)ccc1C (stereo not shown) [compound 178],4.06
11,CC(C)c1ccc(-c2ccccc2NC(=O)c2c(C(F)F)nn(C)c2F)cc1 [compound 96],4.44
12,Cn1nc(C(F)F)c(C(=O)Nc2cccc(-c3ccc(Cl)cc3)c2)c1F [compound 207],3.83
13,Cn1nc(C(F)F)c(C(=O)Nc2cccc(-c3cccc([Si](C)(C)C)c3)c2)c1F [compound 237],4.96
14,CC(C)Oc1ccc(-c2ccccc2NC(=O)c2c(C(F)F)nn(C)c2Cl)cc1 [compound 114],4.36
15,Cc1cc(C)c(-c2cccc(NC(=O)c3c(C(F)F)nn(C)c3F)c2)c(C)c1 [compound 211],4.34
16,Cn1nc(C(F)F)c(C(=O)Nc2cccc(-c3ccc([Si](C)(C)C)cc3)c2)c1F [compound 239],5.03
17,Cc1ccc(CCC(C)(C)C)c(NC(=O)c2c(C(F)F)nn(C)c2F)c1 [compound 17],4.29
18,Cn1nc(C(F)F)c(C(=O)Nc2ccccc2OCc2cc(Cl)ccc2Cl)c1F [compound 162],4.56
19,Cn1nc(C(F)F)c(C(=O)Nc2ccccc2-c2ccc(Cl)cc2Cl)c1F [compound 123],3.89
20,Cc1cc(C)cc(-c2cccc(NC(=O)c3c(C(F)F)nn(C)c3F)c2)c1 [compound 205],4.11
21,Cn1nc(C(F)F)c(C(=O)Nc2cccc3c2OC(F)(F)O3)c1F [compound 62],2.77
22,CC(C)COc1ccc(-c2cccc(NC(=O)c3c(C(F)F)nn(C)c3Cl)c2)cc1 [compound 236],4.83
23,CCOc1ccc(NC(=O)c2c(C(F)F)nn(C)c2F)cc1OCC [compound 167],2.54

# Same assay, conditions: reversed-phase HPLC column (C 18)
row,Structure (SMILES),chromatographic logP
1,Nc1ccc(F)cc1-c1ccc(C(F)(F)F)cc1 [5-fluoro-4′-(trifluoromethyl)biphenyl-2-amine],3.52
